The numbers were not newly measured in paper PMC2096531 (Purinergic Signalling, 2005), which cites them from elsewhere.

The series addresses human A2B receptors. The settings on record: read-out: EC50 A2B, agonist.

For `CCNC(=O)[C@H]1O[C@@H](n2cnc3c(N)nc(C#CC(O)c4ccccc4)nc32)[C@H](O)[C@@H]1O` (stereo partly drawn) [(R,S)-PHPNECA, (R,S)-2-phenyhydroxypropynyl-N-ethylcarboxamidoadenosine], the concentration giving a half-maximal response (EC50) is 1100 nM.
